The test system of data set [1] is HT-29. Put plainly: Antiproliferative activity against human HT29 cells incubated for 72 hrs by MTT assay. To be noted: HT-29, 72 h. (Tetrazolium assays rely on reduction of a dye to a coloured formazan, in cell work by metabolically active cells.)
In data set [2] the test system is HL-60. Put plainly: Antiproliferative activity against human HL60 cells incubated for 72 hrs by CCK8 assay. To be noted: HL-60, 72 h.
Data set [3] has as its system WI-38. Nature of the data set: Antiproliferative activity against human WI-38 cells incubated for 72 hrs by MTT assay. To be noted: WI-38, 72 h.
Data set [4] concerns the target T1, Bromodomain-containing protein 4 (Homo sapiens, UniProt O60885). Put plainly: Inhibition of BRD4 BD1 (unknown origin) preincubated for 15 mins followed by peptide addition and measured after 60 mins by TR-FRET assay. On the technique in general: TR-FRET usually uses a lanthanide donor and a delayed reading to cut background.
For data set [5], the target named is T1, Bromodomain-containing protein 4. Put plainly: Inhibition of BRD4 BD2 (unknown origin) preincubated for 15 mins followed by peptide addition and measured after 60 mins by TR-FRET assay.
The target in data set [6] is T2, Bromodomain-containing protein 2 (Homo sapiens, UniProt P25440). Nature of the data set: Inhibition of BRD2 BD1 (unknown origin) preincubated for 15 mins followed by peptide addition and measured after 60 mins by TR-FRET assay.
Data set [7] deals with T2, Bromodomain-containing protein 2. Nature of the data set: Inhibition of BRD2 BD2 (unknown origin) preincubated for 15 mins followed by peptide addition and measured after 60 mins by TR-FRET assay.
Data set [8] in a line: Half life in Wistar rat at 15 mg/kg, po measured up to 24 hrs by LC-MS/MS analysis. Format: ADME, organism-based. To be noted: in vivo.
Data set [9] in a line: Oral bioavailability in Wistar rat at 15 mg/kg measured up to 24 hrs by LC-MS/MS analysis. It is filed as ADME, organism-based. To be noted: in vivo.
A short description of data set [10]: Half life in Wistar rat at 5 mg/kg, iv measured up to 24 hrs by LC-MS/MS analysis. Format: ADME, organism-based. To be noted: in vivo.
A short description of data set [11]: Apparent clearance during terminal phase in Wistar rat at 15 mg/kg, po measured up to 24 hrs by LC-MS/MS analysis. Format: ADME, organism-based. To be noted: in vivo, read-out: CLz/F (converted).
Data set [12] is described as follows: Tmax in Wistar rat at 15 mg/kg, po measured up to 24 hrs by LC-MS/MS analysis. To be noted: in vivo. Format: ADME, organism-based.
Data set [13] is described as follows: AUC(0 to infinity) in Wistar rat at 15 mg/kg, po measured up to 24 hrs by LC-MS/MS analysis. It is filed as ADME, organism-based. Details: route oral, dose 15 mg/kg, time <=24. To be noted: in vivo.
Data set [14] can be described thus: AUC(0 to t) in Wistar rat at 15 mg/kg, po measured up to 24 hrs by LC-MS/MS analysis. To be noted: in vivo. It is filed as ADME, organism-based. Details: route oral, dose 15 mg/kg, time <=24.
Data set [15] is described as follows: AUC(0 to infinity) in Wistar rat at 5 mg/kg, iv measured up to 24 hrs by LC-MS/MS analysis. To be noted: in vivo. Details: route intravenous, dose 5 mg/kg, time <=24. It is filed as ADME, organism-based.
A short description of data set [16]: Cmax in Wistar rat at 15 mg/kg, po measured up to 24 hrs by LC-MS/MS analysis. To be noted: in vivo. Details: route oral, dose 15 mg/kg, time <=24. It is filed as ADME, organism-based.
The nature of data set [17]: AUC(0 to t) in Wistar rat at 5 mg/kg, iv measured up to 24 hrs by LC-MS/MS analysis. Format: ADME, organism-based. Details: route intravenous, dose 5 mg/kg, time <=24. To be noted: in vivo.
Data set [18] is described as follows: Apparent clearance during terminal phase in Wistar rat at 5 mg/kg, iv measured up to 24 hrs by LC-MS/MS analysis. It is filed as ADME, organism-based. To be noted: in vivo.

What is called IC50 is the midpoint of a concentration-inhibition curve. A lower IC50 goes with greater potency in that assay. Broadly, the half-life is the time needed for the level to fall by half in the phase considered. Low readings indicate rapid decline, high ones slow decline. What is called bioavailability is the share of a dose that reaches the circulation, judged against a reference dose that is usually intravenous. Broadly, the Tmax is the time at which the peak concentration occurs. One may read the AUC(0-inf) as total exposure, with the tail of the curve extrapolated. One may read the AUC(0-t) as the area under the concentration-time curve up to a stated or last time point. Low readings indicate low exposure, high ones high exposure. A word on the Cmax: it is the highest concentration seen after dosing.

T2 sequence (P25440 whole entry): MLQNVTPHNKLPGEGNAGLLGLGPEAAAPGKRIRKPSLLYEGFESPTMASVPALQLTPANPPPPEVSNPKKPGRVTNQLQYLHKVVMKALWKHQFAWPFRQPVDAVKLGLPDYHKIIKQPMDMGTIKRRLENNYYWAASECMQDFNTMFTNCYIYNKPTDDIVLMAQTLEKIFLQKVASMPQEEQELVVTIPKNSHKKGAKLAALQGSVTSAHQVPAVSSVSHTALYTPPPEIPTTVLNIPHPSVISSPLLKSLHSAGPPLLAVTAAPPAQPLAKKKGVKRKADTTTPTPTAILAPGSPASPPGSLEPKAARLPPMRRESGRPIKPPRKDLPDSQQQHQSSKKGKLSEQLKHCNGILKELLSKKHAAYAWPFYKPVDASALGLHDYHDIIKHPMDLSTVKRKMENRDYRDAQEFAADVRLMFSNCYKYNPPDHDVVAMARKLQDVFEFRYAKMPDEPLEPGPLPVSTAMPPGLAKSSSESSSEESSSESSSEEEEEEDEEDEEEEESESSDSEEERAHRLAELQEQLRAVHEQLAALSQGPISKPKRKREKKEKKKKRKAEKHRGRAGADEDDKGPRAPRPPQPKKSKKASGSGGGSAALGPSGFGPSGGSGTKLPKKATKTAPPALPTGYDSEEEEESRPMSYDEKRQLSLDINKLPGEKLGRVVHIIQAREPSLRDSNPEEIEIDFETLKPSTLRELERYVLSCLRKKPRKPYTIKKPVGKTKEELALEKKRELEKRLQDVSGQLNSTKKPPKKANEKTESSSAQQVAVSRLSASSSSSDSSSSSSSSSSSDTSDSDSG

As to `Cc1sc2c(c1C)C(c1ccc(Cl)cc1)=N[C@@H](CC(=O)OC(C)(C)C)c1nnc(C)n1-2`, the results for the concentration for half-maximal inhibition (IC50) in data set [1], in data set [2] and in data set [3] were 0.48 µM, 160 nM and 4.97 µM, respectively.

Take `COc1ccccc1S(=O)(=O)Nc1ccc2c(c1)CN(C)C(=O)N2`: the half-inhibitory concentration (IC50) was 14.7 µM in data set [1], 3990 nM in data set [2] and 19.8 µM in data set [3].

In turn, `CC(C)=C1C(=O)Nc2ccc(NS(=O)(=O)c3cccc4c(N(C)C)cccc34)cc21` displayed a half-inhibitory concentration (IC50) in data set [4] of 208 nM.

As to `COc1ccc(Br)cc1S(=O)(=O)Nc1ccc2c(c1)C(=C(C)C)C(=O)N2`, the concentration for half-maximal inhibition (IC50) in data set [4] was found to be 23 nM; in [5], 21 nM; in [6] it was 39 nM; in data set [7] it was 22 nM.

For the molecule `COc1ccccc1S(=O)(=O)Nc1ccc2c(c1)C(=C1CCC1)C(=O)N2`, in [4], inhibition was half-maximal at 26 nM (IC50).

On to `CC(C)=C1C(=O)Nc2ccc(NS(=O)(=O)C3CCCCC3)cc21`, for which inhibition in data set [4] was half-maximal at 22 nM (IC50).

For `COc1ccc(S(=O)(=O)Nc2ccc3c(c2)C(=C(C)C)C(=O)N3)cc1`, in data set [4], the IC50 is 94 nM.

In the case of `COc1ccccc1S(=O)(=O)Nc1ccc2c(c1)C(=C(C)C)C(=O)N2`, the half-life is 215 min in data set [8] and 93.6 min in data set [10]. For the same molecule, the bioavailability in data set [9] stood at 66%. The CL/F in data set [11] was 17.2 mL/min/kg. In addition, the Tmax in [12] is 1 h. In addition, the AUC(0-inf) in data set [13] was 14600 ng·h/mL; in data set [15] it was 7340 ng·h/mL. Further, the AUC(0-t) at 24 h in data set [14] was 14400 ng·h/mL; in data set [17], 7300 ng·h/mL. Besides, the half-inhibitory concentration (IC50) in [6] amounted to 24 nM; in [7] it was 18 nM. This molecule also gave a Cmax in data set [16] of 2180 ng/mL. Besides, the CLz/F in data set [18] turned out to be 0.68 L/h/kg.

As to `CC(C)=C1C(=O)Nc2ccc(NS(=O)(=O)c3cccc4ccccc34)cc21`, the midpoint of inhibition in [4], the IC50, lay at 62 nM.

Molecule `COc1ccc(F)cc1S(=O)(=O)Nc1ccc2c(c1)C(=C(C)C)C(=O)N2` showed an IC50 in data set [4] of 34 nM.

Turning to `COc1ccc(C)cc1S(=O)(=O)Nc1ccc2c(c1)C(=C(C)C)C(=O)N2`, half-maximal inhibition in [4] (IC50) required 30 nM.

Turning to `CC(C)=C1C(=O)Nc2ccc(NS(=O)(=O)c3cc(C)ccc3F)cc21`, the IC50 in data set [4] came out at 20 nM.

`C/C=C1\C(=O)Nc2ccc(NS(=O)(=O)c3ccccc3OC)cc21`: in data set [4], the half-maximal inhibitory concentration (IC50) came to 36 nM.

In data set [4], `CC/C=C1\C(=O)Nc2ccc(NS(=O)(=O)c3ccccc3OC)cc21` registered an IC50 of 114 nM.

Consider `CC(C)=C1C(=O)Nc2ccc(NS(=O)(=O)c3cc(F)ccc3F)cc21`, for which, in data set [4], the IC50 is 56 nM.

`CC(C)=C1C(=O)Nc2ccc(NS(=O)(=O)c3ccc4c(c3)CCO4)cc21` showed an IC50 in data set [4] of 92 nM.

Turning to `CC(C)=C1C(=O)Nc2ccc(NS(=O)(=O)c3ccc4ccccc4c3)cc21`, 203 nM corresponded to half-maximal inhibition in [4] (IC50).

Consider `CC(C)=C1C(=O)Nc2ccc(NS(=O)(=O)c3ccccc3Br)cc21`, for which the IC50 in data set [4] amounted to 25 nM; in data set [5], 43 nM; in data set [6], 40 nM; in [7], 25 nM.

These data come from ChEMBL document CHEMBL4706560, “Design, synthesis and biological evaluation of indole-2-one derivatives as potent BRD4 inhibitors” (Eur J Med Chem, 2020).
